Assays:
[1] = tested on: Puccinia recondita f. Sp. Tritici; experiment: Fungicidal activity against Puccinia recondita f. sp. tritici / wheat / leaf disc preventative (brown rust); type: in vivo; conditions: foliar, 200 ppm in the applied formulation, wheat leaf segments cv. Kanzler, inoculated 1 day after application, assessed 7 to 9 days after application, read-out: disease control compared to untreated control leaf disks
Procedure: Leaf disks or leaf segments of various plant species are cut from plants grown in a greenhouse. The cut leaf disks or segments are placed in multiwell plates (24-well format) onto water agar. The leaf disks are sprayed with a test solution before (preventative) or after (curative) inoculation. Compounds to be tested are prepared as DMSO solutions (max. 10 mg/ml) which are diluted to the appropriate concentration with 0.025% Tween20 just before spraying. The inoculated leaf disks or segments are incubated under defined conditions (temperature, relative humidity, light, etc.) according to the respective test system. A single evaluation of disease level is carried out 3 to 14 days after inoculation, depending on the pathosystem. Percent disease control relative to the untreated check leaf disks or segments is then calculated. Wheat leaf segments cv. Kanzler were placed on agar in multiwell plates (24-well format) and sprayed with the formulated test compound diluted in water. The leaf disks were inoculated with a spore suspension of the fungus 1 day after application. The inoculated leaf segments were incubated at 19° C. and 75% relative humidity (rh) under a light regime of 12 hours light/12 hours darkness in a climate cabinet and the activity of a compound was assessed as percent disease control compared to untreated when an appropriate level of disease damage appears in untreated check leaf segments (7 to 9 days after application). The following compounds at 200 ppm in the applied formulation give at least 80% disease control in this test when compared to untreated control leaf disks under the same conditions, which show extensive disease development.

[2] = tested on: Glomerella lagenarium (Colletotrichum lagenarium); experiment: Fungicidal activity against Glomerella lagenarium (Colletotrichum lagenarium) liquid culture / cucumber / preventative (anthracnose); type: cell-based; conditions: Colletotrichum orbiculare; 20 ppm in the applied formulation; liquid culture in PDB, 24° C.; 3 to 4 days after application; read-out: disease control compared to untreated control (inhibition of growth measured photometrically)
Procedure: Mycelia fragments or conidia suspensions of a fungus prepared either freshly from liquid cultures of the fungus or from cryogenic storage, are directly mixed into nutrient broth. DMSO solutions of the test compound (max. 10 mg/ml) are diluted with 0.025% Tween20 by a factor of 50 and 10 μl of this solution is pipetted into a microtiter plate (96-well format). The nutrient broth containing the fungal spores/mycelia fragments is then added to give an end concentration of the tested compound. The test plates are incubated in the dark at 24° C. and 96% relative humidity. The inhibition of fungal growth is determined photometrically after 2 to 7 days, depending on the pathosystem, and percent antifungal activity relative to the untreated check is calculated.
Conidia of the fungus from cryogenic storage are directly mixed into nutrient broth (PDB—potato dextrose broth). After placing a (DMSO) solution of test compound into a microtiter plate (96-well format), the nutrient broth containing the fungal spores is added. The test plates are incubated at 24° C. and the inhibition of growth is measured photometrically 3 to 4 days after application.
The following compounds at 20 ppm in the applied formulation give at least 80% disease control in this test when compared to untreated control under the same conditions, which show extensive disease development.

[3] = tested on: Puccinia recondite f. Sp. Tritici; experiment: Fungicidal activity against Puccinia recondite f. sp. tritici / wheat / leaf disc curative (brown rust); type: in vivo; conditions: foliar, 200 ppm in the applied formulation, wheat leaf segments cv. Kanzler, applied 1 day after inoculation, assessed 6 to 8 days after application, read-out: disease control compared to untreated control leaf disks
Procedure: (§1) Leaf disks or leaf segments of various plant species are cut from plants grown in a greenhouse. The cut leaf disks or segments are placed in multiwell plates (24-well format) onto water agar. The leaf disks are sprayed with a test solution before (preventative) or after (curative) inoculation. Compounds to be tested are prepared as DMSO solutions (max. 10 mg/ml) which are diluted to the appropriate concentration with 0.025% Tween20 just before spraying. The inoculated leaf disks or segments are incubated under defined conditions (temperature, relative humidity, light, etc.) according to the respective test system. A single evaluation of disease level is carried out 3 to 14 days after inoculation, depending on the pathosystem. Percent disease control relative to the untreated check leaf disks or segments is then calculated.
Wheat leaf segments cv. Kanzler are placed on agar in multiwell plates (24-well format). The leaf segments are then inoculated with a spore suspension of the fungus. Plates were stored in darkness at 19° C. and 75% relative humidity. The formulated test compound diluted in water was applied 1 day after inoculation. The leaf segments were incubated at 19° C. and 75% relative humidity under a light regime of 12 hours light/12 hours darkness in a climate cabinet and the activity of a compound was assessed as percent disease control compared to untreated when an appropriate level of disease damage appears in untreated check leaf segments (6 to 8 days after application).
(§2) The following compounds at 200 ppm in the applied formulation give at least 80% disease control in this test when compared to untreated control leaf disks under the same conditions, which show extensive disease development.

Phakopsora pachyrhizi = experiment: Fungicidal activity against Phakopsora pachyrhizi / soybean / leaf disc preventative (Asian soybean rust); type: in vivo; conditions: foliar, 200 ppm in the applied formulation, soybean leaf disks, inoculated one day after application, assessed 12 to 14 days after application, read-out: disease control compared to untreated control leaf disks
Procedure: as §1
Soybean leaf disks are placed on water agar in multiwell plates (24-well format) and sprayed with the formulated test compound diluted in water. One day after application leaf discs are inoculated by spraying a spore suspension on the lower leaf surface. After an incubation period in a climate cabinet of 24-36 hours in darkness at 20° C. and 75% rh leaf disc are kept at 20° C. with 12 h light/day and 75% rh. The activity of a compound is assessed as percent disease control compared to untreated when an appropriate level of disease damage appears in untreated check leaf disks (12 to 14 days after application).
as §2

SMILES	melting point	pest or weed control at 200 ppm [1]	inhibition at 20 ppm [2]	pest or weed control at 200 ppm [3]	pest or weed control at 200 ppm (Phakopsora pachyrhizi)
CCNC(=O)C(=O)c1ccc(-c2noc(C(F)(F)F)n2)cc1 [Compound 1.39, N-ethyl-2-oxo-2-[4-[5-(trifluoromethyl)-1,2,4-oxadiazol-3-yl]phenyl]acetamide]	105 to 110 °C	≥ 80%	≥ 80%	≥ 80%	≥ 80%
C=CCNC(=O)C(=O)c1ccc(-c2noc(C(F)(F)F)n2)cc1 [Compound 1.25, N-allyl-2-oxo-2-[4-[5-(trifluoromethyl)-1,2,4-oxadiazol-3-yl]phenyl]acetamide]	71 to 74 °C	≥ 80%	≥ 80%	≥ 80%	≥ 80%

Second part, led by results:

melting point	SMILES	pest or weed control at 200 ppm [1]	inhibition at 20 ppm [2]	pest or weed control at 200 ppm [3]	pest or weed control at 200 ppm (Phakopsora pachyrhizi)
79 to 84 °C	C#CCNC(=O)C(=O)c1ccc(-c2noc(C(F)(F)F)n2)cc1 [Compound 1.41, 2-oxo-N-prop-2-ynyl-2-[4-[5-(trifluoromethyl)-1,2,4-oxadiazol-3-yl]phenyl]acetamide]	≥ 80%	≥ 80%	≥ 80%	≥ 80%
86 to 95 °C	O=C(NCC1CC1)C(=O)c1ccc(-c2noc(C(F)(F)F)n2)cc1 [Compound 1.43, N-(cyclopropyl-methyl)-2-oxo-2-[4-[5-(trifluoromethyl)-1,2,4-oxadiazol-3-yl]phenyl]acetamide]	≥ 80%	≥ 80%	≥ 80%	≥ 80%
162 to 165 °C	CCN1OCC(NC(=O)C(=O)c2ccc(-c3noc(C(F)(F)F)n3)cc2)C1=O (stereo not shown) [Compound 1.21, N-(2-ethyl-3-oxo-isoxazolidin-4-yl)-2-oxo-2-[4-[5-(trifluoromethyl)-1,2,4-oxadiazol-3-yl]phenyl]acetamide]	≥ 80%	≥ 80%	≥ 80%	≥ 80%

Source: US10653146B2, “Microbiocidal oxadiazole derivatives” (SYNGENTA PARTICIPATIONS AG, priority 2016, dated 2020)
